{"source": "paper PMC11172375", "about": "“Preclinical Evaluation of Biodistribution and Toxicity of [^211At]PSMA-5 in Mice and Primates for the Targeted Alpha Therapy against Prostate Cancer” (International Journal of Molecular Sciences, 2024)", "origin": "cited, not measured here", "key": {"[1]": {"system": "metastatic castration-resistant prostate cancer", "set-up": "method as in doi:10.1200/JCO.2022.40.6_suppl.TPS211", "conditions": "taxane-naïve patients with mCRPC, PSMAfore trial; cited from earlier work"}, "[2]": {"system": "metastatic castration-resistant prostate cancer", "set-up": "method as in PMID 34161051", "conditions": "patients with mCRPC previously treated with ARPI and taxane, VISION trial; cited from earlier work"}, "[3]": {"conditions": "cited from earlier work"}, "[4]": {"system": "prostate cancer", "set-up": "method as in PMID 27390158, PMID 38218192, PMID 33293081, PMID 33008928, PMID 37247612", "conditions": "patients resistant to beta therapy with [177Lu]PSMA-617; cited from earlier work"}, "[5]": {"set-up": "method as in PMID 27230930", "conditions": "mice treated with 1.5MBq (75MBq/kg); cited from earlier work"}}, "data": [{"smiles": "O=C([O-])CN1CCN(CC(=O)[O-])CCN(CC(=O)NCC2CCC(C(=O)N[C@@H](Cc3ccc4ccccc4c3)C(=O)NCCCC[C@H](NC(=O)N[C@@H](CCC(=O)O)C(=O)O)C(=O)O)CC2)CCN(CC(=O)[O-])CC1.[177Lu+3]", "note": "(stereo partly drawn) [[^177Lu]PSMA-617]", "values": [{"measurement": "radiographic progression-free survival compared to ARPI changes", "setting": "[1]", "result": "prolong radiographic progression-free survival"}, {"measurement": "overall survival compared to the standard of care", "setting": "[2]", "result": "significantly extended overall survival"}]}, {"smiles": "[211At-].[Na+]", "note": "[[^211At]NaAt]", "values": [{"measurement": "uptake in the thyroid", "setting": "[3]; 3 h post-administration", "result": 509, "unit": "%ID/g"}, {"measurement": "thyroid histology", "setting": "[3]; even in low-dose groups (5 MBq/kg)", "result": "thyroid ablation effects"}]}, {"smiles": "O=C([O-])CC[C@H](NC(=O)N[C@@H](CCCCNC(=O)[C@H](Cc1ccc2ccccc2c1)NC(=O)C1CCC(CNC(=O)CN2CCN(CC(=O)[O-])CCN(CC(=O)[O-])CCN(CC(=O)[O-])CC2)CC1)C(=O)[O-])C(=O)[O-].[225Ac].[H+].[H+].[H+]", "note": "(stereo partly drawn) [[^225Ac]PSMA-617]", "values": [{"measurement": "efficacy of alpha therapy", "setting": "[4]", "result": "proven effective"}]}, {"smiles": "O=C(O)CC[C@H](NC(=O)NC(CCCCNC(=O)c1ccc([211At])cc1)C(=O)O)C(=O)O", "note": "(stereo partly drawn) [^211At-6, (2S)-2-(3-(1-Carboxy-5-(4-211At-Astatobenzamido)Pentyl)Ureido)-Pentanedioic Acid]", "values": [{"measurement": "kidney toxicity", "setting": "[5]", "result": "late nephropathy with loss of the proximal tubules"}]}]}
